Reference: patent publication US20180000745A1, “CRUCIFERIN COATED NANOPARTICLES” (priority 2016, published 2018)

Test system: Caco-2 cells
Experiment: Cell uptake of coumarin-6-loaded particles by confocal microscopy
Format: cell-based
Conditions: 6 h incubation; particles 0.5 mg/mL, coumarin-6 […] in DMEM
Description: To study the cell uptake of nanoparticles in Caco-2 cells, coumarin-6, as a fluorescent marker, was encapsulated into the nanoparticles. The cellular uptake of coumarin-6-loaded nanoparticles was compared with free coumarin-6 (not encapsulated). In brief, 1 mL of coumarin-6 solution in ethanol at concentrations ranging from 10 to 400 μg/mL was mixed with 9 mL 2 mg/mL chitosan solution in 0.1 M acetic acid. 9 mL of 5 mg/mL cruciferin solution (solubilized at pH 12) was added dropwise to the solution while stirring. The pH of the suspension was adjusted to 5.5, stirred for 2 h and then centrifuged at 40000 g and 4° C. for 30 min, Loaded particles pellet was collected, washed twice with water and centrifuged to remove free coumarin-6. The labelled particles were re-suspended in DMEM medium at concentrations of 0.1, 0.5 and 1 mg/mL. The size and zeta potential of the re-suspended particles were measured. Caco-2 cells (10^5 cells/well) were seeded on cover glasses placed in 6-well plates (Costar, Corning, N.Y.), and incubated until cells were about 80% confluent. 2.5 mL of labelled-particles suspensions or free coumarin-6 solution in DMEM medium was added to each well and incubated for 6 h at 37° C. Then, the cells were washed three times with PBS to remove free nanoparticles and coumarin-6. Cell membranes were stained with 10 μg/mL Alexa Fluor 594-Concanavalin A conjugate in PBS for 10 min. […]

Compound: CCN(CC)c1ccc2cc(-c3nc4ccccc4s3)c(=O)oc2c1 [free coumarin-6, Coumarin 6]
- fluorescence within cells (cell uptake): no noticeable signal was detected
